Experimental findings from patent US10077261B2, “Imidazolin-5-one derivative useful as FASN inhibitors for the treatment of cancer” (Janssen Pharmaceutica NV, priority 2012, dated 2018) are described below.

For assay [1], the target named is Fatty Acid Synthase Keto-reductase Domain (FASN KR) (Homo sapiens, UniProt P49327). Kind of assay: Fatty Acid Synthase keto-reductase domain (FASN KR) inhibition, NADPH oxidation at 340 nm.
Protocol: After 20 minutes incubation at room temperature the plate was measured again (T2).
The decrease in absorbance was calculated as (Absorbance before incubation T1)−(Absorbance following incubation T2).
A plot of Controlmin versus test compound concentration was fitted to a 4-parameter logistic curve using a non-linear least squares regression method.
Assay [2] has as its system LNCaP-Vancouver prostate cells. The assay can be described thus: In vitro LNCaP Vancouver prostate cell proliferation assay in lipid reduced medium. The class given is cell-based. As to conditions: read-out: pIC50 LNCaP_Vancouver prostate cell (converted).
Assay [3] has as its system PC-3M-Luc-C6 prostate cells. Kind of assay: In vitro PC-3M-Luc-C6 prostate cell proliferation assay in lipid reduced medium. The class given is cell-based. Particulars: 96 h, read-out: pIC50 PC-3M-Luc-C6 prostate cell (converted).
For assay [4], the target named is T1, hFASN enzyme (full length) (Homo sapiens, UniProt P49327).
T1 construct: 10 μL hFASN enzyme (full length, 300 ng, purified in house); made in house
Kind of assay: Fatty Acid Synthase (FASN) inhibition scintillation proximity assay. The class given is biochemical. Particulars: for inhibition at 10 µM: read-out: Human FASN % inhibition @ 10 μM, 10 μM test compound; for IC50: read-out: Human FASN pIC50 (converted). The procedure, abridged: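 Full-length in-house purified enzyme (300 ng) was tested in 100 mM KH2PO4 pH 7.5, 1 mM DTT with ³H-acetyl-CoA and malonyl-CoA as substrates; compounds ranged 0.01–30 μM. Reactions were stopped with streptavidin imaging beads, read by LEADseeker at 610 nm, and fitted to a 4-parameter logistic curve.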
In general terms: In a scintillation proximity assay essentially only radioactivity close to the scintillant gives light.

For assay [5], the system named is A2780 ovarian cells. The assay can be described thus: A2780 ovarian cell proliferation assay in lipid reduced medium, with palmitate (MTT). The class given is cell-based. As to conditions: Homo sapiens, A2780, 96 h; read-out: pIC50 A2780 Ovarian Cell, With Palmitate (converted). The procedure, abridged: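 Seeded cells were switched next day to lipid-reduced serum, exposed to compound and 25 μM palmitate complexed with fatty-acid-free BSA, and incubated 96 h. Proliferation was then determined by MTT absorbance at 544 nm, with a best-fit curve of signal against concentration.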

Assay [6] has as its system A2780 ovarian cells. The assay can be described thus: A2780 ovarian cell proliferation assay in lipid reduced medium, without palmitate (MTT). The class given is cell-based. Particulars: Homo sapiens, A2780, 96 h; read-out: pIC50 A2780 Ovarian Cell, Without Palmitate (converted).

Chain of Fatty Acid Synthase Keto-reductase Domain (FASN KR) (P49327 whole entry, the tested form may be a part): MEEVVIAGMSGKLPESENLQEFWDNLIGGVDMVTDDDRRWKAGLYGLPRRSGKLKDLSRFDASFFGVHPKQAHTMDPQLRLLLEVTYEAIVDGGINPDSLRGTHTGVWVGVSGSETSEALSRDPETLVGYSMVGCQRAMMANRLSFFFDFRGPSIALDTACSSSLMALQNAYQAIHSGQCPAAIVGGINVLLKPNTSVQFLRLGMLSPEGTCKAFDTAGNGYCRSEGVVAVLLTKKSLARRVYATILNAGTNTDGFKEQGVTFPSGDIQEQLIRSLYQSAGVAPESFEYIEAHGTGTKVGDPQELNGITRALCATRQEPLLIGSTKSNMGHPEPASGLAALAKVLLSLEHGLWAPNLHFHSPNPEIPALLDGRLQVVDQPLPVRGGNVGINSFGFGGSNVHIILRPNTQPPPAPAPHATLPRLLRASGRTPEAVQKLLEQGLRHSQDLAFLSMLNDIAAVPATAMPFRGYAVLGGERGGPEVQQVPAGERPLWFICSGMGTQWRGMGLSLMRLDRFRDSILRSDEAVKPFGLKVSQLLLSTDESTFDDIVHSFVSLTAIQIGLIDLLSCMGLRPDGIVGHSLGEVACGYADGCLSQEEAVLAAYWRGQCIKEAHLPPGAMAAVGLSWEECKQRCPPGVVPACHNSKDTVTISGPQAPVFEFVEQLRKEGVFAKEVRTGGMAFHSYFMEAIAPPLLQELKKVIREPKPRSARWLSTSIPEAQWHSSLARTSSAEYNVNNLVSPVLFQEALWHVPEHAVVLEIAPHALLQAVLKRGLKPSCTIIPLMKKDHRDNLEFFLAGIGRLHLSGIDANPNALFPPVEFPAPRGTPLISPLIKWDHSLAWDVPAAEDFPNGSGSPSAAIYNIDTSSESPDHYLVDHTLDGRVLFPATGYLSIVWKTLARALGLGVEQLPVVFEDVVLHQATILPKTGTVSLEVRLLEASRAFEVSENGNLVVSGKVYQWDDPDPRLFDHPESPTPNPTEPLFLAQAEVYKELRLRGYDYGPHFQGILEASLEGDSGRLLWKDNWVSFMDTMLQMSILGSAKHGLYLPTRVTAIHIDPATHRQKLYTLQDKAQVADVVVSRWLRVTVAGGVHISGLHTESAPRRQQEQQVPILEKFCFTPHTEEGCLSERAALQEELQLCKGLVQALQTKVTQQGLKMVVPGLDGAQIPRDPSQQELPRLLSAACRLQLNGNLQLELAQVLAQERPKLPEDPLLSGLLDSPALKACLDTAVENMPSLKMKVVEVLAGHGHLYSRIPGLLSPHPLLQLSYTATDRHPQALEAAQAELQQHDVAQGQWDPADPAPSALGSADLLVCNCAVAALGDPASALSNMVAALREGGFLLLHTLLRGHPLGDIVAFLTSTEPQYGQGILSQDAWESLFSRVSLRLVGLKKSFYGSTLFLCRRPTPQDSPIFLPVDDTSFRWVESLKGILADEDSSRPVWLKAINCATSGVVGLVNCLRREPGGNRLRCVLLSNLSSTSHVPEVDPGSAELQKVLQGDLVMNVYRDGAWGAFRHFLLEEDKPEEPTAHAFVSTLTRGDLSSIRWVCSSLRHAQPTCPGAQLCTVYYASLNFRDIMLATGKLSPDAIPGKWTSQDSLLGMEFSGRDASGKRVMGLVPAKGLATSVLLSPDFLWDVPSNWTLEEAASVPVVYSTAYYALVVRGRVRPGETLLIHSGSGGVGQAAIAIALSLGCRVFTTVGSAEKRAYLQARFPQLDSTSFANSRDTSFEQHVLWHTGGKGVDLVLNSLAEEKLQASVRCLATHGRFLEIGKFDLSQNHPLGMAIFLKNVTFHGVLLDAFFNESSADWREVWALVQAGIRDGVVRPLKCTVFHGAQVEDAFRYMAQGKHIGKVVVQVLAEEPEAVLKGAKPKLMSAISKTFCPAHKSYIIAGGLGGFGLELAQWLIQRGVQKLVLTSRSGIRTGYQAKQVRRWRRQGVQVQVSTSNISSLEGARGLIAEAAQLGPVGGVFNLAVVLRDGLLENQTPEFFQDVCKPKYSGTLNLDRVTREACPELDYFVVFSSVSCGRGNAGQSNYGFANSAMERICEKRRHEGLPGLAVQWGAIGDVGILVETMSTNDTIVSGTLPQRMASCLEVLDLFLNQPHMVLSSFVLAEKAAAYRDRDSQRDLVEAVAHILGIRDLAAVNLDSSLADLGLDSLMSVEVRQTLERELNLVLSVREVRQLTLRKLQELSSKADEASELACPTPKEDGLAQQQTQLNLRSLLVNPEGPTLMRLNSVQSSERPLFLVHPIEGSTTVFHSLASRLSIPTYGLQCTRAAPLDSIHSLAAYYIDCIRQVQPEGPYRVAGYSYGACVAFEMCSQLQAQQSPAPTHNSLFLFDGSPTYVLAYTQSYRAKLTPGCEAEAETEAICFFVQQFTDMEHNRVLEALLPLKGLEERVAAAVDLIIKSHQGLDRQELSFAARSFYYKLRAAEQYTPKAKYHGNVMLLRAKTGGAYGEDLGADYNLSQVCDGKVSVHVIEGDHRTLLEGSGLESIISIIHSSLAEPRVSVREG
T1 sequence (P49327 whole entry): as the sequence (P49327 whole entry, the tested form may be a part) above

A word on the inhibition: it is the change of the read-out against control, counted positive when it falls. With `O=C(C1CC1)N1CC(CN2C(=O)C3(CC3)N=C2c2ccc(-c3ccc4cc[nH]c4c3)cc2)C1` [compound 299, 5-(4-(1H-indol-6-yl)phenyl)-6-((1-(cyclopropanecarbonyl)azetidin-3-yl)methyl)-4,6-diazaspiro[2.4]hept-4-en-7-one], the IC50 is 58.9 nM in assay [1]; 234 nM in assay [2]; 38.9 nM in assay [3]; 22.9 nM in assay [4]; more than 10 µM in assay [5]; 30.9 nM in assay [6]. Besides, the inhibition at 10 µM in assay [4] came to 101%.

In the case of `O=C(C1CC1)N1CC(CN2C(=O)C3(CC3)N=C2c2ccc(-c3cccc4[nH]ncc34)cc2)C1` [compound 300, 5-(4-(1H-indazol-4-yl)phenyl)-6-((1-(cyclopropanecarbonyl)azetidin-3-yl)methyl)-4,6-diazaspiro[2.4]hept-4-en-7-one], the IC50 is 126 nM in assay [1]; 1910 nM in assay [2]; 123 nM in assay [3]; 57.5 nM in assay [4]; more than 10 µM in assay [5]; 74.1 nM in assay [6]. For the same compound, the inhibition at 10 µM in assay [4] amounted to 102%.

For `O=C(C1CC1)N1CC[C@@H](CN2C(=O)C3(CC3)N=C2c2ccc(-c3ccc4cc[nH]c4c3)cc2)C1` [compound 301, (R)-5-(4-(1H-indol-6-yl)phenyl)-6-((1-(cyclopropanecarbonyl)pyrrolidin-3-yl)methyl)-4,6-diazaspiro[2.4]hept-4-en-7-one], the IC50 in assay [1] was 27.5 nM; in assay [2] it was 275 nM; in assay [3], 12 nM; in assay [4], 20 nM; in assay [5] it was more than 10 µM; in assay [6], 14.8 nM. The inhibition at 10 µM in assay [4] turned out to be 99%.

For `Cc1cc(-c2ccc3cc[nH]c3c2)ccc1C1=NC2(CC2)C(=O)N1CC1CN(C(=O)C2CC2)C1` [compound 303, 5-(4-(1H-indol-6-yl)-2-methylphenyl)-6-((1-(cyclopropancarbonyl)azetidin-3-yl)methyl)-4,6-diazaspiro[2.4]hept-4-en-7-one], the IC50 in assay [1] was 69.2 nM; in assay [2], approximately 912 nM; in assay [3] it was 39.8 nM; in assay [4], 30.9 nM; in assay [5], more than 6.17 µM; in assay [6], 28.8 nM. Further, the inhibition at 10 µM in assay [4] was found to be 102%.

Turning to `Cc1cc(-c2cccc3[nH]ncc23)ccc1C1=NC2(CC2)C(=O)N1CC1CN(C(=O)C2CC2)C1` [compound 304, 5-(4-(1H-indazol-4-yl)-2-methylphenyl)-6-((1-(cyclopropanecarbonyl)azetidin-3-yl)methyl)-4,6-diazaspiro[2.4]hept-4-en-7-one], the IC50 in assay [1] was 224 nM; in assay [2], 1260 nM; in assay [3], 72.4 nM; in assay [4], 97.7 nM; in assay [5] it was more than 10 µM; in assay [6] it was 85.1 nM. Moreover, the inhibition at 10 µM in assay [4] turned out to be 99%.

`Cc1cc(-c2ccc3cc[nH]c3c2)ccc1C1=NC2(CC2)C(=O)N1C[C@@H]1CCN(C(=O)C2CC2)C1` [compound 305, (R)-5-(4-(1H-indol-6-yl)-2-methylphenyl)-6-((1-(cyclopropanecarbonyl)pyrrolidin-3-yl)methyl)-4,6-diazaspiro[2.4]hept-4-en-7-one]: the IC50 in assay [1] is 30.9 nM; in assay [2], 263 nM; in assay [3], 28.8 nM; in assay [4], 25.1 nM; in assay [5] it was more than 10 µM; in assay [6], 40.7 nM. The inhibition at 10 µM in assay [4] was 103%.

In the case of `Cc1cc(-c2cccc3[nH]ncc23)ccc1C1=NC2(CC2)C(=O)N1C[C@@H]1CCN(C(=O)C2CC2)C1` [compound 306, (R)-5-(4-(1H-indazol-4-yl)-2-methylphenyl)-6-((1-(cyclopropanecarbonyl)pyrrolidin-3-yl)methyl)-4,6-diazaspiro[2.4]hept-4-en-7-one], the IC50 in assay [1] was 105 nM; in assay [2], 513 nM; in assay [3], 17 nM; in assay [4], 50.1 nM; in assay [5] it was more than 10 µM; in assay [6], 17.8 nM. In assay [4], the inhibition at 10 µM stood at 98%.
